{"source": "patent US20230016479A1", "about": "“METHOD FOR PREPARING MESENCHYMAL STEM CELLS HAVING IMPROVED VIABILITY THROUGH ANTI-CANCER VIRUS INTRODUCTION” (priority 2019, published 2023)", "test_system": "ViroSTEM (mesenchymal stem cells into which measles virus has been introduced)", "assay": "Viability of ViroSTEM cold-stored in 30% autologous serum-containing physiological saline treated with aspirin", "type": "cell-based, human", "description": "While ViroSTEM, which is mesenchymal stem cells into which measles virus has been introduced, was cold-stored in physiological saline containing aspirin and 30% autologous serum for 5 days, it was treated with aspirin at a concentration of 10 μg/ml to 100 μg/ml.\nThe period of time during which ViroSTEM cold-stored in physiological saline containing 50 μg/ml aspirin and 30% autologous serum was maintained as described above increased to 80 hours, indicating the stability of the virus in ViroSTEM cold-stored for 80 hours. After cold storage of ViroSTEM for 80 hours, the stem cells were cultured and then observed under a fluorescence microscope.", "data": [{"smiles": "CC(=O)Oc1ccccc1C(=O)O", "note": "[aspirin]", "values": [{"measurement": "viability at 50 µg/mL", "setting": "Homo sapiens, Mesenchymal stem cells, 72 h, aspirin 50 μg/ml, cold storage 3 days in physiological saline containing 30% autologous serum, without aspirin about 28.6%, read-out: cell viability of measles virus-infected stem cell therapeutic agent", "value": "≥ 88", "unit": "%"}, {"measurement": "most effective concentration of aspirin", "setting": "tested 10 μg/ml to 100 μg/ml in vehicle containing autologous serum", "value": 50, "unit": "µg/mL"}]}]}
